Measured values: patent US8623879B2, “1-heterocyclyl-1,5-dihydro-pyrazolo[3,4-D] pyrimidin-4-one derivates and their use as PDE9A modulators” (Boehringer Ingelheim International GmbH, priority 2008, dated 2014)
Read-outs that look alike come from different tables or passages of the source.

Target: T1, human PDE9A2 (Homo sapiens, UniProt O76083)
T1 construct: made in house; host or cells: Sf9 insect cells (infected); crude lysate used as enzyme source
Assay: PDE9A2 enzymatic activity assay (scintillation proximity assay, SPA)
Format: biochemical
Conditions: for IC50: reported only as range 1-100 or 101-1200 nanomolar, specific value lies within range

[1] = read-out: % inhibition of PDE9A2 (at 10 micromolar concentration), 10 micromolar concentration, values above 100% adjusted to 100%
[2] = read-out: IC50 within range [nanomolar (nM)]

T1 sequence (O76083 1-533 isoform O76083-2): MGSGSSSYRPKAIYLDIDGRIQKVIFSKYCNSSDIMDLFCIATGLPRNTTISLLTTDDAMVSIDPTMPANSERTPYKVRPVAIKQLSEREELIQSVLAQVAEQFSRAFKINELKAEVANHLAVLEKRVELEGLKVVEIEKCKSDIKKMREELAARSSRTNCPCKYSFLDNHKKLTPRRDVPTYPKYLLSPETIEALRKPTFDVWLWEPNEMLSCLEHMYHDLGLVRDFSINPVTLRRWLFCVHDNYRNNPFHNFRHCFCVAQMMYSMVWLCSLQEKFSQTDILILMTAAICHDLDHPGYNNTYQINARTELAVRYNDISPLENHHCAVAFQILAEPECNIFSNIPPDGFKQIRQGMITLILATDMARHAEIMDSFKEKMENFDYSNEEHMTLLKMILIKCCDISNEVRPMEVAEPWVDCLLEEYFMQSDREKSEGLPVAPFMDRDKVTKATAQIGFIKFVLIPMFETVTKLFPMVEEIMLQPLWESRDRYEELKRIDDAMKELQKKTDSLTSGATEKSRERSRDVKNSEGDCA

Structure (SMILES)	inhibition at 10 µM [1] [%]	IC50 [2] [nM]	IC50 (IC50 within range [nanomolar (nM)]) [nM]	inhibition at 10 µM (read-out: % inhibition of PDE9A2 (at 10 micromolar concentration)) [%]	% inhibition of PDE9A2 (at 10 micromolar concentration) (10 micromolar concentration, values above 100% adjusted to 100%) [%]
O=c1[nH]c(Cc2ccccc2)nc2c1cnn2C1CCOCC1 [Example 40]	–	–	1 to 100	99	–
CN1CCCC(n2ncc3c(=O)[nH]c(Cc4ccccc4F)nc32)C1 (racemic) [Example 217]	97	101 to 1200	–	–	–
CC(C)(C)OC(=O)N1CCC(n2ncc3c(=O)[nH]c(CC4CCC4)nc32)C1 (racemic) [Example 16]	86	101 to 1200	–	–	–
CC(C)Cc1nc2c(cnn2C2CCOC2)c(=O)[nH]1 (single isomer, unassigned) [Example 132-3]	89	101 to 1200	–	–	–
O=C(c1ccccc1)N1CCC(n2ncc3c(=O)[nH]c(Cc4ccccc4OC(F)(F)F)nc32)C1 (racemic) [Example 169]	86	101 to 1200	–	–	–
CCC(Cc1nc2c(cnn2C2CCCN(C(=O)c3ccccc3)C2)c(=O)[nH]1)C(F)(F)F (mixture of isomers) [Example 174]	89	101 to 1200	–	–	–
O=c1[nH]c(Cc2cccnc2)nc2c1cnn2C1CCOC1 (racemic) [Example 78]	99	101 to 1200	–	–	–
O=c1[nH]c(CC2CCCC2)nc2c1cnn2C1CCOCC1 [Example 134]	99	1 to 100	–	–	–
CCOc1ccccc1Cc1nc2c(cnn2C2CCOCC2)c(=O)[nH]1 [Example 52]	100	1 to 100	–	–	–
O=c1[nH]c(CC2CCCCC2)nc2c1cnn2C1CCOCC1 [Example 144]	100	1 to 100	–	–	–
O=c1[nH]c(Cc2ncccn2)nc2c1cnn2C1CCOCC1 [Example 66]	91	101 to 1200	–	–	–
O=c1[nH]c(Cc2ccccc2)nc2c1cnn2C1CCNC1 (racemic) [Example 199]	88	101 to 1200	–	–	–
CC(C)Cc1nc2c(cnn2C2CCOC2)c(=O)[nH]1 (racemic) [Example 74]	95	1 to 100	–	–	–
CC(c1ccccc1)c1nc2c(cnn2C2CCOCC2)c(=O)[nH]1 (racemic) [Example 14]	96	101 to 1200	–	–	–
O=c1[nH]c(CC2CCC2)nc2c1cnn2C1CCOC1 (single isomer, unassigned) [Example 132-6]	99	1 to 100	–	–	–
O=C(c1ccccc1)N1CCCC(n2ncc3c(=O)[nH]c(CC4CCCC4)nc32)C1 (racemic) [Example 183]	99	1 to 100	–	–	–
CC1(C)CC(n2ncc3c(=O)[nH]c(CC4CCC4)nc32)CCO1 (racemic) [Example 108]	89	101 to 1200	–	–	–
CC(C)(C)OC(=O)N1CCCC(n2ncc3c(=O)[nH]c(Cc4ccccc4F)nc32)C1 (racemic) [Example 23]	99	1 to 100	–	–	–
CC1CC(n2ncc3c(=O)[nH]c(Cc4ccccn4)nc32)CCO1 (racemic) [Example 111]	88	101 to 1200	–	–	–
CC(C)(C)OC(=O)N1CCCC(n2ncc3c(=O)[nH]c(CC4CCCC4)nc32)C1 (racemic) [Example 17]	100	1 to 100	–	–	–
O=c1[nH]c(Cc2cccc(C(F)(F)F)c2)nc2c1cnn2C1CCCNC1 (racemic) [Example 205]	100	1 to 100	–	–	–
O=c1[nH]c(CCC2CCCC2)nc2c1cnn2C1CCOCC1 [Example 9]	99	1 to 100	–	–	–

Structure (SMILES)	inhibition at 10 µM [1] [%]	IC50 [2] [nM]	IC50 (IC50 within range [nanomolar (nM)]) [nM]	inhibition at 10 µM (read-out: % inhibition of PDE9A2 (at 10 micromolar concentration)) [%]	% inhibition of PDE9A2 (at 10 micromolar concentration) (10 micromolar concentration, values above 100% adjusted to 100%) [%]
O=C(c1ccccc1)N1CCCC(n2ncc3c(=O)[nH]c(Cc4ccccn4)nc32)C1 (racemic) [Example 175]	88	101 to 1200	–	–	–
O=c1[nH]c(Cc2ncccc2C(F)(F)F)nc2c1cnn2C1CCOCC1 [Example 63]	92	101 to 1200	–	–	–
CCCc1nc2c(cnn2C2CCOCC2)c(=O)[nH]1 [Example 29]	96	1 to 100	–	–	–
O=c1[nH]c(Cn2cccn2)nc2c1cnn2C1CCOCC1 [Example 26]	91	101 to 1200	–	–	–
COc1ccccc1Cc1nc2c(cnn2C2CCCOC2)c(=O)[nH]1 (racemic) [Example 127]	97	1 to 100	–	–	–
CC(C)Oc1ccccc1Cc1nc2c(cnn2C2CCOCC2)c(=O)[nH]1 [Example 54]	97	1 to 100	–	–	–
O=c1[nH]c(Cc2cccc(C(F)(F)F)c2)nc2c1cnn2C1CCCCO1 (racemic) [Example 147-3]	95	1 to 100	–	–	–
O=c1[nH]c(CC2CCCO2)nc2c1cnn2C1CCOCC1 (racemic) [Example 42]	92	101 to 1200	–	–	–
CC(C)CCc1nc2c(cnn2C2CCOCC2)c(=O)[nH]1 [Example 3]	99	1 to 100	–	–	–
CCOc1ccccc1Cc1nc2c(cnn2C2CCOC2)c(=O)[nH]1 (racemic) [Example 82]	100	1 to 100	–	–	–
O=c1[nH]c(CC2CCC2)nc2c1cnn2C1CCCOC1 (racemic) [Example 96]	99	1 to 100	–	–	–
N#Cc1ccccc1Cc1nc2c(cnn2C2CCOCC2)c(=O)[nH]1 [Example 53]	99	1 to 100	–	–	–
O=c1[nH]c(Cc2ccccn2)nc2c1cnn2C1CCOC1 (single isomer, unassigned) [Example 132-7]	94	1 to 100	–	–	–
O=c1[nH]c(Cc2ccccc2C(F)(F)F)nc2c1cnn2C1CCOC1 (racemic) [Example 86]	95	101 to 1200	–	–	–
C=Cc1cc(OC)ccc1Cc1nc2c(cnn2C2CCOCC2)c(=O)[nH]1 [Example 230-4]	98	101 to 1200	–	–	–
O=C(c1ccccc1)N1CCCC(n2ncc3c(=O)[nH]c(Cc4ccccc4)nc32)C1 (racemic) [Example 182]	100	1 to 100	–	–	–
O=c1[nH]c(Cc2cccc(C(F)(F)F)c2)nc2c1cnn2C1CCCOC1 (racemic) [Example 129]	99	1 to 100	–	–	–
CC[C@H](C)Cc1nc2c(cnn2C2CCOCC2)c(=O)[nH]1 [Example 128]	99	1 to 100	–	–	–
CN1CCC(n2ncc3c(=O)[nH]c(CC4CCC4)nc32)C1 (racemic) [Example 214]	98	1 to 100	–	–	–
COc1ccc(C2CCCCC2Cc2nc3c(cnn3C3CCOCC3)c(=O)[nH]2)cn1 (racemic) [Example 40-4]	92	101 to 1200	–	–	–
COc1ccccc1Cc1nc2c(cnn2C2CCN(C(C)=O)C2)c(=O)[nH]1 (racemic) [Example 168]	90	101 to 1200	–	–	–

The next lines start with the values.

inhibition at 10 µM [1] [%]	IC50 [2] [nM]	IC50 (IC50 within range [nanomolar (nM)]) [nM]	inhibition at 10 µM (read-out: % inhibition of PDE9A2 (at 10 micromolar concentration)) [%]	% inhibition of PDE9A2 (at 10 micromolar concentration) (10 micromolar concentration, values above 100% adjusted to 100%) [%]	Structure (SMILES)
100	1 to 100	–	–	–	CC(C)Cc1nc2c(cnn2C2CCOCC2)c(=O)[nH]1 [Example 143]
97	1 to 100	–	–	–	O=c1[nH]c(Cc2ccccc2OCC2CC2)nc2c1cnn2C1CCOCC1 [Example 55]
98	1 to 100	–	–	–	CC(C)Cc1nc2c(cnn2C2CCCN(C(=O)OC(C)(C)C)C2)c(=O)[nH]1 (racemic) [Example 31]
98	1 to 100	–	–	–	CC(C)Cc1nc2c(cnn2C2CCCOC2)c(=O)[nH]1 (racemic) [Example 92]
96	1 to 100	–	–	–	N#Cc1ccccc1Cc1nc2c(cnn2C2CCOC2)c(=O)[nH]1 (racemic) [Example 88]
99	1 to 100	–	–	–	O=c1[nH]c(Cc2cccc(Cl)c2)nc2c1cnn2C1CCOCC1 [Example 39]
98	1 to 100	–	–	–	O=c1[nH]c(Cc2c(F)cccc2Cl)nc2c1cnn2C1CCOCC1 [Example 6]
98	1 to 100	–	–	–	COc1ccccc1Cc1nc2c(cnn2C2CCOCC2)c(=O)[nH]1 [Example 49]
100	1 to 100	–	–	–	CC(=O)N1CCC(n2ncc3c(=O)[nH]c(Cc4ccccc4)nc32)C1 (racemic) [Example 172]
99	1 to 100	–	–	–	COc1ccc(Cc2nc3c(cnn3C3CCOCC3)c(=O)[nH]2)cc1F [Example 27]
95	1 to 100	–	–	–	O=c1[nH]c(Cc2ccccc2OC2CCCC2)nc2c1cnn2C1CCOCC1 [Example 125]
98	1 to 100	–	–	–	O=c1[nH]c(Cc2cc(F)cc(F)c2)nc2c1cnn2C1CCOCC1 [Example 7]
98	1 to 100	–	–	–	O=c1[nH]c(Cc2ccc(F)cc2Cl)nc2c1cnn2C1CCOCC1 [Example 10]
98	1 to 100	–	–	–	O=c1[nH]c(CC2CCC2)nc2c1cnn2C1CCOCC1 [Example 43]
99	1 to 100	–	–	–	Cc1ccccc1Cc1nc2c(cnn2C2CCOCC2)c(=O)[nH]1 [Example 2]
100	1 to 100	–	–	–	CC1COCCC1n1ncc2c(=O)[nH]c(CC3CCCC3)nc21 (racemic) [Example 132-2]
99	1 to 100	–	–	–	O=c1[nH]c(Cc2ccccc2OC(F)(F)F)nc2c1cnn2C1CCOC1 (racemic) [Example 70]
99	1 to 100	–	–	–	COC(=O)N1CCCC(n2ncc3c(=O)[nH]c(Cc4ccccc4OC(F)(F)F)nc32)C1 (racemic) [Example 156]
–	1 to 100	–	–	100	CC1COCCC1n1ncc2c(=O)[nH]c(CC3CCCC3)nc21 (racemic) [Example 132-5]
98	1 to 100	–	–	–	O=c1[nH]c(Cc2ccccc2O)nc2c1cnn2C1CCOCC1 [Example 28]
98	1 to 100	–	–	–	CCC(CC)Cc1nc2c(cnn2C2CCOCC2)c(=O)[nH]1 [Example 133, 6-(2-Ethyl-butyl)-1-(tetrahydro-pyran-4-yl)-1,5-dihydro-pyrazolo[3,4-d]pyrimidin-4-one]
